US20050101595A1, “N-containing cycloalkyl-substituted amino-thiazole derivatives and pharmaceutical compositions for inhibiting cell proliferation and methods for their use” (PFIZER INC., priority 2003, published 2005)
Structures can show the parent of a compound that is named as a salt. Where two headings read alike, the source gives them in different places.

Legend:
[1] = molecular target: CDK2/Cyclin A (Homo sapiens, UniProt P24941); experiment: Inhibition of CDK2/Cyclin A Retinoblastoma Kinase Activity; format: biochemical; conditions: for Ki: apparent Ki, CDK2/proteolyzed cyclin A, Rb fragment substrate, 25 μM ATP
In short: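 Human CDK2, baculovirus/insect-cell expressed, complexed with proteolyzed cyclin A (10 nM or 19 nM CDK2) phosphorylates an Rb fragment with 25 μM [32P/33P]ATP at pH 7.4, 30° C, for 60 or 75 minutes under initial-rate conditions. Filter-captured radioactivity is read by phosphorimager; apparent Ki from competitive-inhibition fits.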

[2] = molecular target: human CDK4 and genetically truncated (1-264) cyclin D3 (Homo sapiens, UniProt P11802); experiment: Inhibition of CDK4/Cyclin D Retinoblastoma Kinase Activity; format: biochemical; conditions: for Ki: apparent Ki, CDK4/truncated cyclin D3, Rb fragment substrate, 25 μM ATP
Sequence of human CDK4 and genetically truncated (1-264) cyclin D3 (P11802 whole entry, the tested form may be a part): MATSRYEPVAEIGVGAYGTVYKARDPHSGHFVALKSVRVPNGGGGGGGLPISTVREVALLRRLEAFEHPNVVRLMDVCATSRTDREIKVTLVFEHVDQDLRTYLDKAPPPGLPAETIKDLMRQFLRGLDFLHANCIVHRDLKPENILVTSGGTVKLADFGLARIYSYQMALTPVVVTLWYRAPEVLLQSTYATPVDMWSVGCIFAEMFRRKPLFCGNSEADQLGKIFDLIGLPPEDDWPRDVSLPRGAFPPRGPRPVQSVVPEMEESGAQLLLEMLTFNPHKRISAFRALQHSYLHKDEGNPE
Sequence of human CDK4 and genetically truncated (1-264) cyclin D3 (P30281 1-264 partner): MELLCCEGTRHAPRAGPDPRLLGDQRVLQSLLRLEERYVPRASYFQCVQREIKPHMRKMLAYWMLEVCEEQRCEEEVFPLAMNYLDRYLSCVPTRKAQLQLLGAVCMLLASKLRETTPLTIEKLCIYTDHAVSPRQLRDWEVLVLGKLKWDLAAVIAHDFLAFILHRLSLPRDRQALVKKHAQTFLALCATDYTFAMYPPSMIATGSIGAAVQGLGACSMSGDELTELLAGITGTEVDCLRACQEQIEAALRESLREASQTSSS
In short: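 Read-out: 32P/33P incorporation into Rb fragment (386-928) captured on nitrocellulose, phosphorimager. Enzyme 5 nM CDK4/cyclin D3(1-264) from insect cells; ATP 25 μM, pH 7.4, 30 °C, 20 min (60 min for tight binders). Ki from competitive fits.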

[3] = test system: HCT-116 cell line; experiment: Inhibition of cell growth, tetrazolium salt (MTT) assay; format: cell-based; conditions: for IC50: Homo sapiens, HCT-116, 120 h, MTT, three to five days, read-out: HCT-116 IC50; for HCT-116 % Inhibition at 0.25 μM: 0.25 μM compound
In short: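 First, cells were seeded in McCoy's 5A medium and held 4 h. Next, inhibitor concentrations in 0.5% (v/v) DMSO were applied for three to five days at 37° C, 5% CO2. Finally, after 4 h with 0.2 mg/mL MTT and medium removal, solubilized formazan was measured at 540 nm.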

[4] = 0.1 μM compound, HCT-116, Table 4

Structure (SMILES)	Ki [1] [nM]	Ki [2] [nM]	IC50 ([3]; first HCT-116 column (c4)) [nM]	IC50 ([3]; second HCT-116 column (c5)) [nM]	CDK2 % Inhibition at 0.03 μM ([1]; at 0.03 μM) [%]	CDK4 % Inhibition at 0.03 μM ([2]; at 0.03 μM) [%]	HCT-116 % Inhibition at 0.1 μM ([3]; HCT-116 cells, at 0.1 μM) [%]	HCT-116 5 Inhibition at 0.25 μM ([3]; HCT-116 cells)	further results
CN(C)CCCS(=O)(=O)N1CCC(Nc2nc(N)c(C(=O)c3c(F)cccc3F)s2)CC1 [Example K4, 1-(4-Amino-2-{1-[3-(dimethylamino)propane-1-sulfonyl]-piperidin-4-ylamino}-thiazol-5-yl)-1-(2,6-difluoro-phenyl)-methanone.]	1.8	1.3	410	1500					
CCN1CCN(C(=O)N2CCC(Nc3nc(N)c(C(=O)c4c(F)cccc4F)s3)CC2)C(=O)C1=O [Example R83]					21	52	0	45	
Nc1nc(NC2CCN(C(=O)c3ccc(N=Nc4ccccc4)cc3)CC2)sc1C(=O)c1c(F)cccc1F [Example R13]					32	69	0	42	
CN1CCN(CCc2ccc(S(=O)(=O)N3CCC(Nc4nc(N)c(C(=O)c5c(F)cccc5F)s4)CC3)cn2)CC1 [Example N4, [4-Amino-2-(1-{6-[2-(4-methyl-piperazin-1-yl)-ethyl]-pyridine-3-sulfonyl}-piperidin-4-ylamino)-thiazol-5-yl]-(2,6-difluoro-phenyl)-methanone Hydrochloride Salt.]	1.7	0.92	360	> 500					
COC(C(=O)N1CCC(Nc2nc(N)c(C(=O)c3c(F)cccc3F)s2)CC1)(c1ccccc1)C(F)(F)F (stereo not shown) [Example R16]					−29	12	6	41	
N#CCCCS(=O)(=O)N1CCC(Nc2nc(N)c(C(=O)c3c(F)cccc3F)s2)CC1 [Example K17, 1-(4-{4-Amino-5-[1-(2,6-difluorophenyl)methanoyl]-thiazol-2-ylamino}-piperidine-1-sulfonyl)butyronitrile.]	2.5	3.4	890	2200					
Nc1nc(NC2CCN(C(=O)c3cccnc3Sc3ccc(Cl)cc3)CC2)sc1C(=O)c1c(F)cccc1F [Example R43]					−73	2	4	46	
COc1ccccc1CCC(=O)N1CCC(Nc2nc(N)c(C(=O)c3c(F)cccc3F)s2)CC1 [Example R175]					19	41	0	47	
Nc1nc(NC2CCN(C(=O)[C@H](Cc3ccccc3)NS(=O)(=O)c3cccc4ccccc34)CC2)sc1C(=O)c1c(F)cccc1F [Example R73]					6	19	4	38	
Cn1ccnc1-c1ccc(S(=O)(=O)N2CCC(Nc3nc(N)c(C(=O)c4c(F)cccc4F)s3)CC2)cn1 [Example I3, 1-(4-Amino-2-{1-[6-(1-methyl-1H-imidazol-2-yl)-pyridine-3-sulfonyl]-piperidin-4-ylamino}-thiazol-5-yl)-1-(2,6-difluoro-phenyl)-methanone Trifluoroacetic Acid Salt]	1.7	2	160	500					
Cc1ccccc1C(=O)N1CCC(Nc2nc(N)c(C(=O)c3c(F)cccc3F)s2)CC1 [Example Q17]									CDK2 % Inhibition at 0.03 μM ([1]; 0.03 μM compound, Table 4): −11%; CDK4 % Inhibition at 0.03 μM ([2]; 0.03 μM compound, Table 4): 45%; HCT-116 % Inhibition at 0.1 μM [3, 4]: 2%; HCT-116 % Inhibition at 0.25 μM ([3]; HCT-116, Table 4): 34%
COc1ccc(C(=O)N2CCC(Nc3nc(N)c(C(=O)c4c(F)cccc4F)s3)CC2)cc1 [Example Q28]									CDK2 % Inhibition at 0.03 μM ([1]; 0.03 μM compound, Table 4): 53%; CDK4 % Inhibition at 0.03 μM ([2]; 0.03 μM compound, Table 4): 82%; HCT-116 % Inhibition at 0.1 μM [3, 4]: 6%; HCT-116 % Inhibition at 0.25 μM ([3]; HCT-116, Table 4): 41%
COC(=O)[C@H](COC(C)(C)C)NC(=O)N1CCC(Nc2nc(N)c(C(=O)c3c(F)cccc3F)s2)CC1 [Example O79]									CDK2 % Inhibition At 0.03 μM ([1]; 0.03 μM compound, Table 2): 32%; CDK4 % Inhibition at 0.03 μM ([2]; 0.03 μM compound, Table 2): 8%; HCT-116 % Inhibition at 0.25 μM ([3]; HCT-116, Table 2): 49%
CC(C)S(=O)(=O)N1CCC(Nc2nc(N)c(C(=O)c3c(F)cccc3F)s2)CC1 [Example F11, 1-{4-Amino-2-[1-(propane-2-sulfonyl)-piperidin-4-ylamino]-thiazol-5-yl}-1-(2,6-difluoro-phenyl)-methanone]	1.6	1.1	180	450					
COCCNCCS(=O)(=O)N1CCC(Nc2nc(N)c(C(=O)c3c(F)cccc3F)s2)CC1 [Example K25, (4-Amino-2-{1-[2-(2-methoxy-ethylamino}-ethanesulfonyl]-piperidin-4-ylamino}-thiazol-5-yl)-(2,6-difluoro-phenyl)-methanone Trifluoroacetic Acid Salt.]	4.4	1.4	880	2600					
N#Cc1ccccc1S(=O)(=O)N1CCC(Nc2nc(N)c(C(=O)c3c(F)cccc3F)s2)CC1 [Example F9, 2-{4-[4-Amino-5-(2,6-difluoro-benzoyl)-thiazol-2-ylamino]-piperidine-1-sulfonyl}-benzonitrile]	2	3.6	140	250					
Cc1ccc(C(=O)N2CCC(Nc3nc(N)c(C(=O)c4c(F)cccc4F)s3)CC2)cc1 [Example Q35]									CDK2 % Inhibition at 0.03 μM ([1]; 0.03 μM compound, Table 4): 35%; CDK4 % Inhibition at 0.03 μM ([2]; 0.03 μM compound, Table 4): 64%; HCT-116 % Inhibition at 0.1 μM [3, 4]: 3%; HCT-116 % Inhibition at 0.25 μM ([3]; HCT-116, Table 4): 21%
CC1=NC(C)CN1c1ccc(S(=O)(=O)N2CCC(Nc3nc(N)c(C(=O)c4c(F)cccc4F)s3)CC2)cn1 (stereo not shown) [Example G23, 1-(4-Amino-2-{1-[6-(2,4-dimethyl-4,5-dihydro-imidazol-1-yl)-pyridin-3-sulfonyl]-piperidin-4-ylamino}-thiazol-5-yl)-1-(2,6-difluoro-phenyl)-methanone Hydrochloride]	< 1	0.44	750	5000					
C[C@@H](O)CN(C)c1ccc(S(=O)(=O)N2CCC(Nc3nc(N)c(C(=O)c4c(F)cccc4F)s3)CC2)cn1 [Example G17, 1-[4-Amino-2-(1-{6-[((R)-2-hydroxy-propyl)-methyl-amino]-pyridine-3-sulfonyl}-piperidine-4-ylamino)-thiazol-5-yl]-1-(2,6-difluoro-phenyl)-methanone Trifluoroacetic Acid Salt]	0.55	1.4	360	900					
CCOC(=O)N1CCC(Nc2nc(N)c(C(=O)c3c(F)cccc3F)s2)CC1 [Example Q8]									CDK2 % Inhibition at 0.03 μM ([1]; 0.03 μM compound, Table 4): −13%; CDK4 % Inhibition at 0.03 μM ([2]; 0.03 μM compound, Table 4): 15%; HCT-116 % Inhibition at 0.1 μM [3, 4]: 6%; HCT-116 % Inhibition at 0.25 μM ([3]; HCT-116, Table 4): 45%
CN(CCS(=O)(=O)N1CCC(Nc2nc(N)c(C(=O)c3c(F)cccc3F)s2)CC1)c1ccccc1 [Example K37, (4-Amino-2-{1-[2-(methyl-phenyl-amino)-ethanesulfonyl]-piperidin-4-ylamino}-thiazol-5-yl)-(2,6-difluoro-phenyl)-methanone Trifluoroacetic Acid Salt.]	7	3.2	310	1300					
Nc1nc(NC2CCN(C(=O)c3ccccc3Br)CC2)sc1C(=O)c1c(F)cccc1F [Example Q10]									CDK2 % Inhibition at 0.03 μM ([1]; 0.03 μM compound, Table 4): 23%; CDK4 % Inhibition at 0.03 μM ([2]; 0.03 μM compound, Table 4): 57%; HCT-116 % Inhibition at 0.1 μM [3, 4]: 1%; HCT-116 % Inhibition at 0.25 μM ([3]; HCT-116, Table 4): 42%
Cc1nn(-c2ccccc2)nc1C(=O)N1CCC(Nc2nc(N)c(C(=O)c3c(F)cccc3F)s2)CC1 [Example R24]					20	49	5	39	
